Article PMC2998338 (Neuropharmacology, 2010)
Where “and” joins values, the source holds several entries; their conditions need not be identical. Equal entries are not always repeated. Where two headings read alike, the source gives them in different places.

What was measured:
male ICR mice [1] = assay: Body temperature, antagonism of nicotine-induced hypothermia; format: in vivo; conditions: for AD50 Body temperature, percent effect at the individual dose: 15 min before nicotine, tested 30 min after nicotine; for block of nicotine-induced hypothermia: mice
[2] = biological target: human α4β2 neuronal nAChRs (Homo sapiens, UniProt P17787+P43681); conditions: for α4β2 nH: Hill coefficient, mean
male ICR mice [3] = assay: Tail-flick test, antagonism of nicotine-induced antinociception; format: in vivo; conditions: s.c., 15 min before nicotine 2.5 mg/kg, tested 5 min after nicotine; (confidence limits)
rat α3β4 nAChRs = rat α3β4 nAChRs (Rattus norvegicus, UniProt P04757+P12392); conditions: for α3β4 nH: Hill coefficient, mean
male ICR mice [4] = assay: Body temperature; format: in vivo
male ICR mice [5] = assay: Tail-flick test, compound alone; format: in vivo; conditions: for ED50 Tail-flick, percent effect at the individual dose: tested 15 min after injection; for change of tail-flick latencies by the compound itself: highest dose tested
male ICR mice [6] = assay: Hot-plate test, compound alone; format: in vivo; conditions: tested 15 min after injection
neuronal nAChRs = assay: Whole-cell patch-clamp, time course of inhibition; format: cell-based; conditions: co-application with ACh following pre-exposure
rat α7 nAChRs = rat α7 nAChRs (Rattus norvegicus, UniProt Q05941); conditions: for α7 nH: Hill coefficient, mean
α7 nAChRs = α7 nAChRs (Rattus norvegicus, UniProt Q05941); assay: [125I]IodoMLA binding assay, rat cerebral cortex; conditions: read-out: Ki, [125I]MLA binding sites, 70 pM [125I]iodoMLA
male ICR mice [7] = assay: Hot-plate test, antagonism of nicotine-induced antinociception; format: in vivo; conditions: at 10 mg/kg s.c., 15 min before nicotine
NMDA receptors = conditions: read-out: IC50, NMDA receptors; ref MacDonald et al., 1990; Morris et al., 2005; cited from earlier work
[8] = holding potential −100 to +60 mV, n=3

Chain of rat α3β4 nAChRs (P04757 26-499): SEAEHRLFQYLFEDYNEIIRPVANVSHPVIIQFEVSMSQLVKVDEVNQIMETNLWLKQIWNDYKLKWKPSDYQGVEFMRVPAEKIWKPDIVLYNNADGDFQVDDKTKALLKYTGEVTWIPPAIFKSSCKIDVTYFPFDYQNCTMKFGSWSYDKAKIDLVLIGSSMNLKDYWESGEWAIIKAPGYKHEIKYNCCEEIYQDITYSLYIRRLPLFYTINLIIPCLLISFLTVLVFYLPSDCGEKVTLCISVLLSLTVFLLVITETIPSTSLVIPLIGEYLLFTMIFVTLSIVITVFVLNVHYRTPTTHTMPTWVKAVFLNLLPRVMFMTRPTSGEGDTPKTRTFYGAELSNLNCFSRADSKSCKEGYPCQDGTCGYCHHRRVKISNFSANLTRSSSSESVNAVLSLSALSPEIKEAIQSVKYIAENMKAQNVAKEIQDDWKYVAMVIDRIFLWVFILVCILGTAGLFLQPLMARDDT
Chain of rat α3β4 nAChRs (P12392 21-495): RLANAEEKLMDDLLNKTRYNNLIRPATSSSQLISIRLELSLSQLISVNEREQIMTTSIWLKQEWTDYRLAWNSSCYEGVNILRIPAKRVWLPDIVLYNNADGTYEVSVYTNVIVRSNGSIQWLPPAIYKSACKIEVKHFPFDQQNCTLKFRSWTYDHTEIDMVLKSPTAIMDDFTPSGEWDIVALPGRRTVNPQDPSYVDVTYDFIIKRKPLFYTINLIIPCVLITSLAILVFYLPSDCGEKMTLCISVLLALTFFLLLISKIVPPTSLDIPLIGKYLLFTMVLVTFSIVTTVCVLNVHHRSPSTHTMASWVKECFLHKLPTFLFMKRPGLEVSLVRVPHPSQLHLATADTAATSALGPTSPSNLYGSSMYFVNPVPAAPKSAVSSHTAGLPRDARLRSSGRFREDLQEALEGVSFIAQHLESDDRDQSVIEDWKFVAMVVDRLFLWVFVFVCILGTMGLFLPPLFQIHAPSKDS
Chain of rat α7 nAChRs (Q05941 23-502): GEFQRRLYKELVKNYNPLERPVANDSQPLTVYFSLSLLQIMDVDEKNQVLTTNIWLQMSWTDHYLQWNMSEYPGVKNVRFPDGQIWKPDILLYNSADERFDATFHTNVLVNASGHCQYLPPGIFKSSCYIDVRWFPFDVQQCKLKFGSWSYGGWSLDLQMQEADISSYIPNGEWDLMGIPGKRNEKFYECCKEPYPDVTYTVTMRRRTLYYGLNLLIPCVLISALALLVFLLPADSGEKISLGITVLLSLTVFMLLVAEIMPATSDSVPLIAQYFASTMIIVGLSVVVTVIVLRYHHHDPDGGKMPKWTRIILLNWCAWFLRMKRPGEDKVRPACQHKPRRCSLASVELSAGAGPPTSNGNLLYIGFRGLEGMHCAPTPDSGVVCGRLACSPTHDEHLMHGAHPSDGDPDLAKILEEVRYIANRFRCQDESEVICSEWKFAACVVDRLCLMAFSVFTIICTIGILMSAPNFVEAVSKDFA
Chain of human α4β2 neuronal nAChRs (P43681 29-627 limits assumed): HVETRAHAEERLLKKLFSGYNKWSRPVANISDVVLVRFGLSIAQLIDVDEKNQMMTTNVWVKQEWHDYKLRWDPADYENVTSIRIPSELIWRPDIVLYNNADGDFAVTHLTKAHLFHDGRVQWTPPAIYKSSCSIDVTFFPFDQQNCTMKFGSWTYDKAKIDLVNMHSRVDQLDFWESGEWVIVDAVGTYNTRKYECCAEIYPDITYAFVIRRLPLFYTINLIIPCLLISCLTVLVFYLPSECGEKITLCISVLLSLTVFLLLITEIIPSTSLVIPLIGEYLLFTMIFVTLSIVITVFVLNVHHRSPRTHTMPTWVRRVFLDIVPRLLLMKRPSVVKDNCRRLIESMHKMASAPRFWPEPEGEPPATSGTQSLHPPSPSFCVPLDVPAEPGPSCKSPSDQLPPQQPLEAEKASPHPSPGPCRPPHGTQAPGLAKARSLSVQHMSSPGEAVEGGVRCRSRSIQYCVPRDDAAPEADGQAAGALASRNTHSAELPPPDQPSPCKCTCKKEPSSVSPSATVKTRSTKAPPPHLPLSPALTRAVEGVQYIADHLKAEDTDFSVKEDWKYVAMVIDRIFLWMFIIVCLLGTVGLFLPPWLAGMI
Chain of human α4β2 neuronal nAChRs (P17787 26-502): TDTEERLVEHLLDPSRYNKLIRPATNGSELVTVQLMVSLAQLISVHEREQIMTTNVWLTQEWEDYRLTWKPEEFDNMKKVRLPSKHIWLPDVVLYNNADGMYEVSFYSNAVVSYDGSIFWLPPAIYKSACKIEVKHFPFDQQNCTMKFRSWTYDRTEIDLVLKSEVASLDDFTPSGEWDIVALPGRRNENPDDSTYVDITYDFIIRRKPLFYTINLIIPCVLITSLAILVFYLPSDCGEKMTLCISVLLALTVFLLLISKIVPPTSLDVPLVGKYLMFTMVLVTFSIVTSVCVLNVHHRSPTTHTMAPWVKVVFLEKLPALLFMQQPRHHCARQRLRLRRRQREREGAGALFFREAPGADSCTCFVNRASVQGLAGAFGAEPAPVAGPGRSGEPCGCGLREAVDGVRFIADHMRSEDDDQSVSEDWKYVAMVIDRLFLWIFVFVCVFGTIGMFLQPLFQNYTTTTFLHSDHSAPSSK
Chain of α7 nAChRs (Q05941 23-502): as the sequence (Q05941 23-502) above

SMILES: CN(C)c1ccc2c(c1)CC1CC(Cc3ccccc3)N(C)C21 (stereo not drawn) [HDMP, 1,2,3,3a,4,8b-hexahydro-2-benzyl-6-N,N-dimethylamino-1-methylindeno[1,2,-b]pyrrole]
- AD50 Body temperature, percent effect at the individual dose (male ICR mice [1]; at 10 mg/kg s.c.): 0%@10
- block of nicotine-induced hypothermia (male ICR mice [1]): failed to block
- effect on whole-cell currents, α4β2 ([2]; 0.1 μM, −80 mV, example cell): no effect
- α4β2 nH [2]: 1.15
- voltage-dependence of inhibitory effect, α4β2 [2, 8]: voltage-independent
- IC50 ([2]; read-out: α4β2 IC50): 25.1 µM
- AD50 Tail-flick (male ICR mice [3]): 0.008 (0.004–0.015) mg/kg
- effect on whole-cell currents, α3β4 (rat α3β4 nAChRs; 0.1 μM, −80 mV, example cell): no effect
- α3β4 nH (rat α3β4 nAChRs): 1.06
- fold less potent than PCP in inhibition of α3β4 nAChR function (rat α3β4 nAChRs; based on IC50s 28.98 and 6.35 μM): 4.6 fold
- voltage-dependence of inhibitory effect, α3β4 (rat α3β4 nAChRs; [8]): voltage-independent
- IC50 (rat α3β4 nAChRs; read-out: α3β4 IC50): 29 µM
- ED50 Hypothermia, percent effect at the individual dose (male ICR mice [4]; at 10 mg/kg s.c.): 0%@10
- ED50 Tail-flick, percent effect at the individual dose (male ICR mice [5]; at 10 mg/kg s.c.): 2%@10
- change of tail-flick latencies by the compound itself (male ICR mice [5]): did not significantly change
- ED50 Hot-Plate, percent effect at the individual dose (male ICR mice [6]; at 10 mg/kg s.c.): 8%@10
- time in which the inhibitory effect develops (neuronal nAChRs): 40 to 60 s
- inhibition of whole-cell currents, α7 (rat α7 nAChRs; 0.1 μM, −80 mV, example cell): 55%
- α7 nH (rat α7 nAChRs): 0.73
- fold more potent than PCP in inhibition of α7 nAChRs (rat α7 nAChRs; based on IC50 values 1.25 and 0.07 μM): 18 fold
- voltage-dependence of inhibitory effect, α7 (rat α7 nAChRs; [8]): voltage-independent
- fold more potent at α7 than at α3β4 nAChRs (rat α7 nAChRs; ratio of patch-clamp IC50s): 414 fold
- fold more potent at α7 than at α4β2 nAChRs (rat α7 nAChRs; ratio of patch-clamp IC50s): 357 fold
- Ki (α7 nAChRs): > 10 µM
- AD50 Hot-Plate, percent effect (inhibition) at the individual dose (male ICR mice [7]): 20%@10

SMILES: c1ccc(C2(N3CCCCC3)CCCCC2)cc1 [PCP, phencyclidine, reference compound]
- AD50 Body temperature, percent effect at the individual dose (male ICR mice [1]; at 5 mg/kg s.c.): 0%@5
- block of nicotine-induced hypothermia (male ICR mice [1]): failed to block
- α4β2 nH [2]: 1.4
- IC50 ([2]; α4β2 IC50): 29 µM
- AD50 Tail-flick (male ICR mice [3]): 1.1 (0.87–1.30) mg/kg
- α3β4 nH (rat α3β4 nAChRs): 0.65
- IC50 (rat α3β4 nAChRs; α3β4 IC50): 6.4 µM and 6.35 µM
- ED50 Hypothermia, percent effect at the individual dose (male ICR mice [4]; at 5 mg/kg s.c.): 5%@5
- ED50 Tail-flick, percent effect at the individual dose (male ICR mice [5]; at 5 mg/kg s.c.): 6%@5
- change of tail-flick latencies by the compound itself (male ICR mice [5]): did not significantly change
- ED50 Hot-Plate, percent effect at the individual dose (male ICR mice [6]; at 5 mg/kg s.c.): 5%@5
- IC50 (NMDA receptors): ~1 µM
- α7 nH (rat α7 nAChRs): 0.97
- fold more potent at α7 than at α4β2 nAChRs (rat α7 nAChRs; ratio of patch-clamp IC50s): 23 fold
